Data published in ChEMBL document CHEMBL1212812, “Multi-target spectral moment QSAR versus ANN for antiparasitic drugs against different parasite species” (Bioorg Med Chem, 2010).
Structures can show the parent of a compound that is named as a salt.

System: Plasmodium falciparum
Experiment: Antimicrobial activity against Plasmodium falciparum
Format: functional, organism-based

IC50 [µM]	SMILES
30	CC(C)=CCC/C(C)=C/CC1(C)C(=O)S[C@@H](C)C1=O (stereo partly specified) [THIOLACTOMYCIN 11]
3	Cc1nc(N)nc(N)c1Cc1ccc(OCc2ccccc2)c(OCc2ccccc2)c1
1	CCCCCCCCCC(O)(P(=O)(O)O)P(=O)(O)O
1	CCOC(=O)c1ccc(N2CCN(c3ccc(C(=O)OCC)cc3)CC2)cc1
71	CC1=C(O)[C@@](C)(CCC(C)CCCC(C)C)SC1=O (stereo partly specified) [THIOLACTOMYCIN 6]
30	CC1C2c3ccccc3C(c3ccccc32)C1CN (stereo unspecified)
37	O=C1Nc2ccccc2/C1=C\c1ccc(Cl)cc1
79	CC1C2c3ccccc3C(c3ccccc32)C1C(=O)Nc1cccnc1 (stereo unspecified)
233	CCCCCCCCCCO[C@@H]1O[C@H](CO)[C@@H](O)[C@H](O)[C@H]1O
21	CN(C)[C@@H]1C(O)=C(C(=O)NCN2CCCC2)C(=O)[C@@]2(O)C(O)=C3C(=O)c4c(O)cccc4[C@@](C)(O)[C@H]3C[C@@H]12 [ROLITETRACYCLINE]
100	CC(C)=CC[C@@]1(C)SC(=O)C(C)=C1O [THIOLACTOMYCIN 2]
1030	CC(=O)NO [ACETOHYDROXAMIC ACID]
1	NNC(=O)c1ccc(N2CCN(c3ccc(C(=O)NN)cc3)CC2)cc1
41	CCN(CC)CCCC(C)Nc1c2ccc(Cl)cc2nc2ccc(OC)cc12 (stereo unspecified) [QUINACRINE]
3	COc1cc(NC(C)CCCN)c2nccc(C)c2c1OCc1ccc(C(F)(F)F)cc1 (stereo unspecified)
145	CCCCCCCCCCCCCCCCOS(=O)(=O)O [SODIUM HEXADECYL SULFATE]
92	CCN(CC)CCCC(C)Nc1ccncc1 (stereo unspecified)
49	C=C/C(C)=C/[C@@]1(C)SC(=O)C(C)=C1O [THIOLACTOMYCIN]
222	CN(C)CCCC1(c2ccc(F)cc2)OCc2cc(C#N)ccc21 (stereo unspecified) [CITALOPRAM]
4	O=C1Cc2c([nH]c3ccc([N+](=O)[O-])cc23)-c2ccccc2N1 [ALSTERPAULLONE]
1	Nc1nc(N)c(-c2cccc(Cl)c2)c(CCCO)n1
17	O=C1NC(=S)S/C1=C1\C(=O)Nc2ccccc21
1	CCCCCCCCCCCC(O)(P(=O)(O)O)P(=O)(O)O
64	COc1ccc2nc3cc(Cl)ccc3c(Nc3cc(CN4CCCC4)c(O)c(CN4CCCC4)c3)c2n1 [PYRONARIDINE]
2	C/C=C1/CN2CC[C@]34c5ccccc5N5C(=O)C([C@H]6C[C@]78c9ccccc9N9C(=O)C=C[C@@H]([C@H]97)[C@H]7C[C@@H]8N6C/C7=C/C)=C[C@H]([C@H]53)[C@H]1C[C@H]24 [SUNGUCINE]
185	CCCCN(CCCC)CCC(O)c1cc2c(Cl)cc(Cl)cc2c2cc(C(F)(F)F)ccc12 (stereo unspecified) [HALOFANTRINE]
200	Cc1cccc(NC(P(=O)(O)O)P(=O)(O)O)n1

IC50 [µM]	SMILES
35	NC(=O)C1=CC2c3ccccc3C1c1ccccc12
1	CN(C)Cc1ccc(Nc2c3ccc(Cl)cc3nc3cc(Cl)ccc23)cc1
30	Nc1ncc(Cc2cccc(Oc3ccccc3)c2)c(N)n1
200	CC(C)N(C(C)C)C(P(=O)(O)O)P(=O)(O)O [(DIISOPROPYLAMINO)METHYLENEDIPHOSPHONIC ACID]
38	CCCCCCOc1c(OC)cc(NC(C)CCCN)c2nc(OC)c(C)cc12 (stereo unspecified)
6	Nc1nc(N)c(-c2cccc(Cl)c2)c(CCCc2ccccc2)n1
6	CN1CCN(CCCN2c3ccccc3Sc3ccc(C(F)(F)F)cc32)CC1 [TRIFLUOPERAZINE]
1	CC[C@H]1CN2CCc3c([nH]c4ccc(O)cc34)[C@@H]2C[C@@H]1C[C@H]1c2[nH]c3ccccc3c2CCN1C
1	COc1ccc(Nc2c3ccc(N)cc3nc3cc(N)ccc23)cc1
32	CC1C2c3ccccc3C(c3ccccc32)C1C(N)=O (stereo unspecified)
29	Cc1c(O)noc1-c1ccccc1
18	C[C@H]1c2cccc(O)c2C(=O)C2=C(O)[C@]3(O)C(=O)C(C(N)=O)=C(O)[C@@H](N(C)C)[C@@H]3[C@@H](O)[C@@H]21 [DOXYCYCLINE]
100	CCc1nc(N)nc(N)c1-c1ccc(Cl)cc1 [PYRIMETHAMINE]
8	Nc1nc(N)c(-c2cccc(Cl)c2)c(CCCOC(=O)c2ccccc2)n1
3	Nc1ncc(Cc2cccc(OCc3ccccc3)c2)c(N)n1
3	Cc1ccc(C(=O)/C=C2\C(=O)Nc3ccc(Br)cc32)cc1
4	O=C1Cc2c([nH]c3ccc(Br)cc23)-c2ccccc2N1 [KENPAULLONE]
1	O=C1Nc2ccccc2/C1=C/C(=O)c1ccc(F)cc1
16	CC1=C(O)[C@@](C)(Cc2cccc(C(=O)c3ccccc3)c2)SC1=O [THIOLACTOMYCIN 8]
35	CN(C)CC1C2c3ccccc3C(c3ccccc32)C1CO (stereo unspecified)
6	C=C[C@@H]1CN2CC[C@@]3(CNc4cc(O)ccc43)[C@@H]2C[C@@H]1C[C@H]1c2[nH]c3ccccc3c2CCN1C [ISOSTRYCHNOFOLINE]
9	CC(C)NC(=N)NC(=N)Nc1ccc(Cl)c(Cl)c1 [CHLORPROGUANIL]
36	CC(C)NC(=N)NC(=N)Nc1ccc(Cl)cc1 [PROGUANIL]
17	CC1C2c3ccccc3C(c3ccccc32)C1C[N+](C)(C)C (stereo unspecified)
5	COc1cc(NC(C)CCCN)c2nccc(C)c2c1OCCCCCc1ccccc1 (stereo unspecified)
134	CC(CCCN)Nc1ccnc2cc(Cl)ccc12 (stereo unspecified) [BIDESETHYL CHLOROQUINE]
32	Cn1c2nc3ccccc3c-2cc2c(Br)cccc21

IC50 [µM]	SMILES
589	N/C(=N\O)c1cc(O)cc(O)c1
5	CC[C@H]1CN2CCc3c([nH]c4cc(O)ccc34)[C@@H]2C[C@@H]1C[C@H]1c2[nH]c3ccccc3c2CCN1C
52	O=C(NCc1ccccc1)C1=CC2c3ccccc3C1c1ccccc12
2	Nc1nc(N)c(-c2cccc(Cl)c2)c(CCCOC(=O)OCc2ccccc2)n1
57	C/N=C/c1c(O)[nH]c2ccccc12
21	O=C1Nc2ccccc2/C1=C\C1CCCCN1 (stereo unspecified)
3	CC1(C)N=C(N)N=C(N)N1c1ccc(Cl)cc1 [CYCLOGUANIL]
28	CN(C)CCCN1c2ccccc2Sc2ccc(Cl)cc21 [CHLORPROMAZINE]
41	CCN(CC)Cc1cc(Nc2ccnc3cc(Cl)ccc23)cc(-c2ccc(Cl)cc2)c1F
34	CN(C)/C=N\C(=O)C1C2c3ccccc3C(c3ccccc32)C1C(=O)/N=C\N(C)C (stereo unspecified)
1	CS(=O)(=O)Nc1ccc(Nc2c3ccc(N)cc3nc3cc(N)ccc23)cc1
1000	CO[C@H]1O[C@@H]2O[C@@]3(C)CC[C@H]4[C@H](C)CC[C@@H]([C@H]1C)[C@@]24OO3
792	NC(=O)NO [HYDROXYUREA]
214	CC1C2c3ccccc3C(c3ccccc32)C1C(=O)Nc1ccccn1 (stereo unspecified)
134	CCN(CC)Cc1cc(Nc2ccncc2)ccc1O
15	CCCCC1C(=O)N(c2ccccc2)N(c2ccc(O)cc2)C1=O (stereo unspecified) [OXYPHENBUTAZONE ANHYDROUS]
16	O=C(NO)c1ccc(O)c(O)c1
200	Cc1cc(C)nc(NC(P(=O)(O)O)P(=O)(O)O)c1
34	CN(C)[C@@H]1C(O)=C(C(N)=O)C(=O)[C@@]2(O)C(O)=C3C(=O)c4c(O)cccc4[C@@](C)(O)[C@H]3[C@H](O)[C@@H]12 [OXYTETRACYCLINE]
19	CC[C@H]1OC(=O)[C@H](C)[C@@H](O[C@H]2C[C@@](C)(OC)[C@@H](O)[C@H](C)O2)[C@H](C)[C@@H](O[C@@H]2O[C@H](C)C[C@H](N(C)C)[C@H]2O)[C@](C)(O)C[C@@H](C)/C(=N\OCOCCOC)[C@H](C)[C@@H](O)[C@]1(C)O [ROXITHROMYCIN]
7	NS(=O)(=O)c1ccc(Nc2c3ccc(Cl)cc3nc3cc(Cl)ccc23)cc1
5	COc1cc(NC(C)CCCN)c2nccc(C)c2c1OCCCCCc1ccccc1C(F)(F)F (stereo unspecified)
22	COc1cc(NC(C)CCCN)c2nccc(C)c2c1OCCCCCc1c(C)cccc1C (stereo unspecified)
200	O=P(O)(O)C(Nc1cccnc1)P(=O)(O)O
23	N/C(=N\O)c1ccc(O)c(O)c1

SMILES	IC50 [µM]
O=P(O)(O)C(NC1CC1)P(=O)(O)O [(CYCLOPROPYLAMINO)METHYLENEDIPHOSPHONIC ACID]	200
CCOC(=O)C1C2c3ccccc3C(c3ccccc32)C1N(C)C (stereo unspecified)	30
CCN(CC)Cc1cc(Nc2ccnc3cc(Cl)ccc23)ccc1O	15
COCCCOc1ccnc(C[S+]([O-])c2nc3ccccc3[nH]2)c1C (stereo unspecified) [RABEPRAZOLE]	7
CN(C)C1C2c3ccccc3C(c3ccccc32)C1C(=O)O (stereo unspecified)	50
N=C(N)NCCCCCCCCCCNC(=N)N [SYNTHALIN]	16
CCCNC(=O)CC[C@@H](C)[C@H]1CC[C@H]2[C@@H]3[C@H](OC(C)=O)C[C@@H]4CC5(CC[C@]4(C)[C@H]3CC[C@]12C)OOC1(CCC(CC)CC1)OO5 (single isomer, unassigned; form 2)	1
C/C=C1/C[n+]2ccc3c([nH]c4ccccc43)c2C[C@@H]1C1=CN2c3ccccc3[C@]34CCN5C/C(=C/C)[C@H](C[C@H]53)[C@@H]([C@@H]1O)[C@H]24 [TETRADEHYDROLONGICAUDATINE]	1
O=C(O)C1C2c3ccccc3C(c3ccccc32)C1CBr (stereo unspecified)	40
CCCCN(CC)C(P(=O)(O)O)P(=O)(O)O [(BUTYL(ETHYL)AMINO)METHYLENEDIPHOSPHONIC ACID]	200
C=C[C@H]1CN2CC[C@H]1C[C@@H]2[C@@H](O)c1ccnc2ccc(OC)cc12 [QUINIDINE]	24
c1ccc2c(c1)ccc1nc3ccccc3nc12 [BENZO[A]PHENAZINE]	20
C=C[C@H]1CN2CC[C@H]1C[C@H]2[C@H](O)c1ccnc2ccccc12 [CINCHONIDINE]	27
CCn1cc(C(=O)O)c(=O)c2cc(F)c(N3CCNCC3)cc21 [NORFLOXACIN]	75
C=C[C@H]1CN2CC[C@H]1C[C@H]2[C@H](O)c1ccnc2ccc(OC)cc12 [QUININE]	54
CN(C)C1CC2c3ccccc3C1c1ccccc12 (stereo unspecified)	9
CCNCc1cc(Nc2ccnc3cc(Cl)ccc23)ccc1O [DESETHYL AMODIAQUINE]	73
